Source: the supplement of paper PMC10307832

How the values were obtained:
Test in all cases: relative viability (nuclei count vs DMSO), 5 days (fraction); higher = more cells survive
RU-SKI 43 + Luminespib = compound: CC[C@@H](C)CNCC(=O)N1CCC2=C([C@@H]1COC3=CC=CC(=C3)C)C=CS2 [RU-SKI 43] + CCNC(=O)c1noc(-c2cc(C(C)C)c(O)cc2O)c1-c1ccc(CN2CCOCC2)cc1 [Luminespib] (partner 0.01 µM)
Method in brief: (§1)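 Lung cancer cell lines in 1536-well plates were dosed by pin tool the day after seeding, either with one drug alone or with a fixed anchor-drug dose plus five library-drug doses (not always all listed) in √10 steps. After 5 days, cells were fixed and their nuclei stained in one step (final 0.05% Triton X-100, 1% formaldehyde, 1 ug/ml Hoechst), then counted on 4× images. Relative viability is the nuclei count in treated wells divided by that in vehicle wells. Values are medians of duplicate plates.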

RU-SKI 43 + Dasatinib = compound: CC[C@@H](C)CNCC(=O)N1CCC2=C([C@@H]1COC3=CC=CC(=C3)C)C=CS2 [RU-SKI 43] + Cc1nc(Nc2ncc(C(=O)Nc3c(C)cccc3Cl)s2)cc(N2CCN(CCO)CC2)n1 [Dasatinib] (partner 0.075 µM)
Method in brief: as §1

MK-8033 + Vorinostat = compound: Cn1cc(-c2cnc3ccc4ccc(CS(=O)(=O)NCc5ccccn5)cc4c(=O)c3c2)cn1 [MK-8033] + O=C(CCCCCCC(=O)Nc1ccccc1)NO [Vorinostat] (partner 1 µM)
Method in brief: as §1

Irinotecan + OSI-027 = compound: CCc1c2c(nc3ccc(OC(=O)N4CCC(N5CCCCC5)CC4)cc13)-c1cc3c(c(=O)n1C2)COC(=O)[C@]3(O)CC [Irinotecan] + COc1cccc2cc(-c3nc([C@H]4CC[C@H](C(=O)O)CC4)n4ncnc(N)c34)[nH]c12 [OSI-027] (partner 0.5 µM)
Method in brief: as §1

Cell Line	relative viability (RU-SKI 43 + Luminespib; first compound 0.1 µM)	relative viability (RU-SKI 43 + Luminespib; first compound 0.3162 µM)	relative viability (RU-SKI 43 + Luminespib; first compound 1 µM)	relative viability (RU-SKI 43 + Luminespib; first compound 3.162 µM)	relative viability (RU-SKI 43 + Luminespib; first compound 10 µM)	relative viability (RU-SKI 43 + Dasatinib; first compound 0.1 µM)	relative viability (RU-SKI 43 + Dasatinib; first compound 0.3162 µM)	relative viability (RU-SKI 43 + Dasatinib; first compound 1 µM)	relative viability (RU-SKI 43 + Dasatinib; first compound 3.162 µM)	relative viability (RU-SKI 43 + Dasatinib; first compound 10 µM)	relative viability (MK-8033 + Vorinostat; first compound 0.02 µM)	relative viability (MK-8033 + Vorinostat; first compound 0.06325 µM)	relative viability (MK-8033 + Vorinostat; first compound 0.2 µM)	relative viability (MK-8033 + Vorinostat; first compound 0.6325 µM)	relative viability (MK-8033 + Vorinostat; first compound 2 µM)	relative viability (Irinotecan + OSI-027; first compound 0.6325 µM)	relative viability (Irinotecan + OSI-027; first compound 2 µM)	relative viability (Irinotecan + OSI-027; first compound 6.325 µM)	relative viability (Irinotecan + OSI-027; first compound 20 µM)
201T	1.06	1.06	1.04	1.06	1.03	0.565	0.547	0.624	0.627	0.56	0.956	0.926	0.791	0.949	0.962	0.723	0.643	0.344	0.153
A-427	0.851	1.2	1	0.668	0.789	0.823	0.656	0.693	0.718	0.643	0.886	0.826	0.819	0.908	0.881	–	0.315	0.244	0.227
ABC-1	0.68	0.434	0.485	0.673	0.811	0.664	0.443	0.638	0.553	0.501	1.24	0.931	0.928	1.04	0.975	–	0.494	0.341	0.093
BEN	0.423	0.277	0.525	0.218	0.421	0.333	0.253	0.474	0.272	0.316	0.594	0.537	0.602	0.547	0.67	0.296	0.271	0.31	0.255
CAL-12T	0.207	0.364	0.179	0.19	0.363	0.404	0.41	0.348	0.38	0.413	0.797	0.709	0.81	0.775	0.673	–	0.798	0.357	0.101
COR-L23	0.547	0.573	0.93	0.869	0.614	0.461	0.491	0.55	0.445	0.443	0.423	0.408	0.385	0.459	0.491	0.578	0.556	0.179	0.145
COR-L 105	0.871	0.837	0.643	0.772	0.686	0.323	0.259	0.304	0.36	0.335	0.88	0.891	0.708	0.782	0.547	0.773	0.859	0.565	0.166
ChaGo-K-1	0.661	0.566	0.723	0.645	0.516	0.651	0.532	0.574	0.492	0.502	0.769	0.74	0.729	0.685	0.687	0.272	0.39	0.215	0.212
EKVX	0.939	0.809	0.758	0.932	0.833	0.457	0.413	0.524	0.57	0.618	0.484	0.72	0.734	0.746	0.66	0.664	0.625	0.49	0.162
EMC-BAC-2	1.18	1.26	1.32	1.16	1.19	0.334	0.299	0.362	0.317	0.296	0.619	0.346	0.421	0.454	0.476	0.316	0.331	0.274	0.287
EPLC-272H	0.467	0.182	0.73	0.423	0.278	0.267	0.351	0.317	0.317	0.321	0.434	0.332	0.38	0.422	0.551	0.224	0.268	0.165	0.249
H3255	0.928	0.951	1.23	0.76	0.849	0.364	0.387	0.578	0.393	0.309	0.847	–	0.768	0.81	0.742	0.502	0.445	0.373	0.367
HARA	0.687	0.765	0.918	0.974	0.672	0.288	0.317	0.303	0.34	0.156	0.549	–	0.553	0.521	0.542	0.148	0.186	0.142	0.0795
HCC-15	0.427	0.249	0.478	0.285	0.419	0.709	0.635	0.689	0.633	0.64	0.898	0.767	0.752	0.738	0.798	–	0.441	0.198	0.14
HCC-44	1.02	–	1.16	1.02	0.894	–	–	–	–	–	1.06	1.14	1.09	1.2	1.07	–	0.721	0.289	0.213
HCC-78	–	–	–	–	–	0.457	0.349	0.607	0.319	0.369	0.401	0.399	0.539	0.262	0.455	0.37	0.35	0.229	0.235
HCC-366	–	–	–	–	–	0.61	0.955	0.715	0.698	0.476	0.392	0.313	0.253	0.329	0.324	0.144	0.714	0.0844	0.0682
HCC-827	0.77	0.795	0.588	0.612	0.679	0.249	0.267	0.319	0.298	0.331	1.1	–	0.8	0.907	0.959	0.639	0.64	0.224	0.216
HOP-62	1	1.29	1.07	0.984	1.04	0.741	0.709	0.875	0.641	0.603	0.549	0.617	0.61	0.717	0.588	0.48	0.768	0.224	0.22

Cell Line	relative viability (RU-SKI 43 + Luminespib; first compound 0.1 µM)	relative viability (RU-SKI 43 + Luminespib; first compound 0.3162 µM)	relative viability (RU-SKI 43 + Luminespib; first compound 1 µM)	relative viability (RU-SKI 43 + Luminespib; first compound 3.162 µM)	relative viability (RU-SKI 43 + Luminespib; first compound 10 µM)	relative viability (RU-SKI 43 + Dasatinib; first compound 0.1 µM)	relative viability (RU-SKI 43 + Dasatinib; first compound 0.3162 µM)	relative viability (RU-SKI 43 + Dasatinib; first compound 1 µM)	relative viability (RU-SKI 43 + Dasatinib; first compound 3.162 µM)	relative viability (RU-SKI 43 + Dasatinib; first compound 10 µM)	relative viability (MK-8033 + Vorinostat; first compound 0.02 µM)	relative viability (MK-8033 + Vorinostat; first compound 0.06325 µM)	relative viability (MK-8033 + Vorinostat; first compound 0.2 µM)	relative viability (MK-8033 + Vorinostat; first compound 0.6325 µM)	relative viability (MK-8033 + Vorinostat; first compound 2 µM)	relative viability (Irinotecan + OSI-027; first compound 0.6325 µM)	relative viability (Irinotecan + OSI-027; first compound 2 µM)	relative viability (Irinotecan + OSI-027; first compound 6.325 µM)	relative viability (Irinotecan + OSI-027; first compound 20 µM)
IA-LM	–	–	–	–	–	–	–	–	–	–	0.828	0.976	0.938	1.01	0.965	–	–	–	–
LC-2-ad	0.987	1.1	1	1.04	0.956	0.587	0.634	0.77	0.605	0.552	0.786	0.651	0.618	0.75	0.659	0.384	0.606	0.372	0.148
LCLC-97TM1	0.902	0.927	0.876	0.898	0.85	0.961	0.919	0.974	0.811	0.796	0.662	0.48	–	0.825	0.761	0.224	0.207	0.108	0.133
LCLC-103H	0.934	1.16	1.1	1.1	0.971	0.502	0.481	0.64	0.453	0.49	0.767	0.719	0.753	0.704	0.807	0.483	0.496	0.339	0.347
LK-2	0.182	0.168	0.171	0.189	0.177	0.308	0.248	0.315	0.295	0.251	0.245	0.259	0.397	0.307	0.357	0.162	0.2	0.237	0.253
LOU-NH91	0.307	0.304	0.431	0.36	0.317	0.553	0.604	0.624	0.581	0.554	0.923	0.638	0.835	0.86	0.92	0.688	0.688	0.386	0.365
LU99A	0.195	0.24	0.211	0.259	0.192	0.486	0.614	0.602	0.587	0.599	0.511	0.495	0.565	0.53	0.433	0.202	0.243	0.181	0.242
LXF-289	0.729	0.853	0.852	0.751	0.568	0.217	0.21	0.218	0.231	0.187	0.843	0.615	0.737	0.755	0.812	0.472	0.797	0.421	0.24
NCI-H23	0.209	0.181	0.209	–	0.224	0.691	0.809	0.797	0.868	0.515	0.678	0.455	0.405	–	0.587	0.327	0.603	0.176	0.288
NCI-H322M	0.858	0.932	0.877	0.884	0.727	0.256	0.238	0.255	0.249	0.259	1.04	0.774	0.829	0.966	0.888	0.414	0.479	0.521	0.216
NCI-H358	0.59	0.292	0.252	0.389	0.307	0.166	0.127	0.131	0.151	0.167	0.79	0.503	0.579	0.712	0.614	0.715	0.377	0.217	0.125
NCI-H441	0.285	0.324	0.436	0.316	0.375	0.615	0.656	0.553	0.582	0.386	0.795	0.738	0.823	0.706	0.732	0.371	0.448	0.281	0.327
NCI-H460	0.035	0.0298	0.0295	0.0325	0.0355	0.505	0.592	0.652	0.573	0.51	0.79	0.473	0.656	0.742	0.726	0.347	0.494	0.12	0.043
NCI-H520	0.191	0.18	0.257	0.209	0.216	0.188	0.233	0.297	0.272	0.191	0.636	0.689	0.777	0.705	0.657	0.292	0.316	0.218	0.192
NCI-H1563	0.51	0.502	0.51	0.529	0.495	0.4	0.409	0.534	0.404	0.467	–	–	–	–	–	0.704	0.843	0.865	0.589
NCI-H1623	0.452	0.478	0.468	0.577	0.447	0.513	0.514	0.668	0.541	0.468	–	–	–	–	–	0.415	0.415	0.303	0.294
NCI-H1648	–	–	–	–	–	–	–	–	–	–	0.591	–	0.3	0.718	0.629	0.238	0.242	0.255	0.268
NCI-H1792	0.462	0.568	0.447	0.492	0.456	0.772	1.03	0.739	0.892	0.845	–	–	–	–	–	0.7	0.617	0.456	0.231
